Source: ChEMBL document CHEMBL2401729, “Histone deacetylase inhibitors equipped with estrogen receptor modulation activity” (J Med Chem, 2013)
Active and inactive are the calls of the source. The rule behind the calls is not given here.

System: MDA-MB-231
Experiment: Cytotoxicity against ERalpha and ERbeta-deficient human MDA-MB-231 cells assessed as growth inhibition after 72 hrs by MTT assay
Type: functional, cell-based
Conditions: MDA-MB-231, 72 h

SMILES | IC50
C#C[C@]1(O)CC[C@H]2[C@@H]3CCc4cc(O)ccc4[C@H]3CC[C@@]21C [ETHINYL ESTRADIOL] | 32.9 µM
C[C@]12CC[C@@H]3c4ccc(O)cc4CC[C@H]3[C@@H]1CC[C@@]2(O)c1cn(CCCC(=O)NO)nn1 | 28.4 µM
CC/C(=C(\c1ccccc1)c1ccc(OCCN(C)C)cc1)c1ccccc1 [TAMOXIFEN] | 17 µM

System: MCF7
Experiment: Cytotoxicity against human MCF7 cells expressing ERalpha and ERbeta assessed as growth inhibition after 72 hrs by MTT assay
Type: functional, cell-based
Conditions: MCF7, 72 h

SMILES | IC50
C[C@]12CC[C@@H]3c4ccc(O)cc4CC[C@H]3[C@@H]1CC[C@@]2(O)c1cn(CCCC(=O)NO)nn1 | 22 µM
CC/C(=C(\c1ccccc1)c1ccc(OCCN(C)C)cc1)c1ccccc1 [TAMOXIFEN] | 15.6 µM

Target: Estrogen receptor beta (Homo sapiens) (UniProt Q92731)
Sequence (Q92731 whole entry, the tested form may be a part): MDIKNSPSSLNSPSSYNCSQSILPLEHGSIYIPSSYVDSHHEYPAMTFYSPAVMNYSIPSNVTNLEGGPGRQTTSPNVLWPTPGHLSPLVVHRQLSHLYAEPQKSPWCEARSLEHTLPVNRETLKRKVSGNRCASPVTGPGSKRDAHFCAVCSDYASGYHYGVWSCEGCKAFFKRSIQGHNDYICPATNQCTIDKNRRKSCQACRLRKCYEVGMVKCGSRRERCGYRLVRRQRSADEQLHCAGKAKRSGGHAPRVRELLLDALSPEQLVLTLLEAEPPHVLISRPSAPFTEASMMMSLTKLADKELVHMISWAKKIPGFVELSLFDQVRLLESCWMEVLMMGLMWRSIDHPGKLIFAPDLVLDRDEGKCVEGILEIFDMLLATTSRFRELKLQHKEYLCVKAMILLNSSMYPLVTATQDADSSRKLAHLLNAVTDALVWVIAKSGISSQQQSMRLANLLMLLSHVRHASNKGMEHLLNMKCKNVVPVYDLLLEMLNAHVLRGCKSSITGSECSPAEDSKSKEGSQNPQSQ
Experiment: Agonist activity at Gal4 DBD-fused human ERbeta LBD expressed in HEK293T cells at 10 uM after 40 hrs by luciferase reporter gene assay
Type: cell-based
Conditions: HEK-293T

SMILES | Activity
C[C@]12CC[C@@H]3c4ccc(O)cc4CC[C@H]3[C@@H]1CC[C@@]2(O)c1cn(CCCCC(=O)NO)nn1 | Active
C[C@]12CC[C@@H]3c4ccc(O)cc4CC[C@H]3[C@@H]1CC[C@@]2(O)c1cn(CCCC(=O)NO)nn1 | Active

Target: T1, Histone deacetylase 8 (Homo sapiens, UniProt Q9BY41)
T1 sequence (Q9BY41 whole entry): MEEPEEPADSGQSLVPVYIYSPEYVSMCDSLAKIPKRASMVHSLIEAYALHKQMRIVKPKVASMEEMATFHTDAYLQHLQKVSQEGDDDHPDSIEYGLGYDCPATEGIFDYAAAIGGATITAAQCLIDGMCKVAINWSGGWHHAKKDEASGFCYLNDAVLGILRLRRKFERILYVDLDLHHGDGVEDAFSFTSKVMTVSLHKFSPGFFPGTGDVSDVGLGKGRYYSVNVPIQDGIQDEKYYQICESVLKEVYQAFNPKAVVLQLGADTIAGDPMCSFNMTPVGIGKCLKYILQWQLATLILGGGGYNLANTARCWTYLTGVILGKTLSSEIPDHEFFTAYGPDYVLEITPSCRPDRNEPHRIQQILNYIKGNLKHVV
Experiment: Inhibition of human recombinant HDAC8 after 30 mins by fluorescence assay
Conditions: not given

SMILES | IC50
C[C@]12CC[C@@H]3c4ccc(O)cc4CC[C@H]3[C@@H]1CC[C@@]2(O)c1cn(CCCCC(=O)NO)nn1 | 5 µM
C[C@]12CC[C@@H]3c4ccc(O)cc4CC[C@H]3[C@@H]1CC[C@@]2(O)c1cn(CCCC(=O)NO)nn1 | 11 µM

Target: T2, Protein deacetylase HDAC6 (Homo sapiens, UniProt Q9UBN7)
T2 sequence (Q9UBN7 whole entry): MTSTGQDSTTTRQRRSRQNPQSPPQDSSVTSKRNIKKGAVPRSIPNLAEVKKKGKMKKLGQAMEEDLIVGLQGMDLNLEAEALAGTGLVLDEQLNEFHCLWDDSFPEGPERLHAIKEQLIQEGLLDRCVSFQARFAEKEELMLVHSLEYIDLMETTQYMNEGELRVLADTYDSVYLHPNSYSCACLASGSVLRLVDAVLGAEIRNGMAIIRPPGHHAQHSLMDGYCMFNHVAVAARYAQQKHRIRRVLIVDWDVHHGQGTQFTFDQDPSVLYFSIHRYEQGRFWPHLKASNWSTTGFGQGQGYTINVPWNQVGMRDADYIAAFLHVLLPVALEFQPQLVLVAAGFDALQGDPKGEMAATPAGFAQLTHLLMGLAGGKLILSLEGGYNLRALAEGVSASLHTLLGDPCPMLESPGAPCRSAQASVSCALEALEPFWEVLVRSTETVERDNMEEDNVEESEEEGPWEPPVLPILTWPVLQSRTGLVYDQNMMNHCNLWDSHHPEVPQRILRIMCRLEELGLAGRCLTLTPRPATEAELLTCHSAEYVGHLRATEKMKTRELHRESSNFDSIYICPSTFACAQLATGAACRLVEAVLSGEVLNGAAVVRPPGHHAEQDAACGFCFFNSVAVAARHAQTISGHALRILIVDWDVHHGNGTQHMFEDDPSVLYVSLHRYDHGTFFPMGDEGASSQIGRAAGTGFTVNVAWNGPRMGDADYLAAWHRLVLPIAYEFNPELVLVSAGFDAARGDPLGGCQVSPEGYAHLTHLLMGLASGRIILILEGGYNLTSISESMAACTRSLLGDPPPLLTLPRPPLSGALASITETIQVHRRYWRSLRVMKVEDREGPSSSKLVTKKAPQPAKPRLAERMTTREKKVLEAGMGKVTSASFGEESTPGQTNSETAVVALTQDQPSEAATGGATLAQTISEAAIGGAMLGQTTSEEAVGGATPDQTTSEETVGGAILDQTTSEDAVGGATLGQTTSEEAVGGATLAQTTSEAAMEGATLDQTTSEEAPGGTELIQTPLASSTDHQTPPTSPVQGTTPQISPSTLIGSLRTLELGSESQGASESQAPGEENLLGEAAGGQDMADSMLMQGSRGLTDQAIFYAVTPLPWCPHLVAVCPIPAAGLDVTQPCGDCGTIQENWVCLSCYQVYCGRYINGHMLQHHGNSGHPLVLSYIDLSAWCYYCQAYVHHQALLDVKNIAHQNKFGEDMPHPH
Experiment: Inhibition of human recombinant HDAC6 after 30 mins by fluorescence assay
Conditions: not given

SMILES | IC50
C[C@]12CC[C@@H]3c4ccc(O)cc4CC[C@H]3[C@@H]1CC[C@@]2(O)c1cn(CCCCC(=O)NO)nn1 | 140 nM
C[C@]12CC[C@@H]3c4ccc(O)cc4CC[C@H]3[C@@H]1CC[C@@]2(O)c1cn(CCCC(=O)NO)nn1 | 8 nM

Target: Histone deacetylase 1 (Homo sapiens, UniProt Q13547)
Sequence (Q13547 whole entry): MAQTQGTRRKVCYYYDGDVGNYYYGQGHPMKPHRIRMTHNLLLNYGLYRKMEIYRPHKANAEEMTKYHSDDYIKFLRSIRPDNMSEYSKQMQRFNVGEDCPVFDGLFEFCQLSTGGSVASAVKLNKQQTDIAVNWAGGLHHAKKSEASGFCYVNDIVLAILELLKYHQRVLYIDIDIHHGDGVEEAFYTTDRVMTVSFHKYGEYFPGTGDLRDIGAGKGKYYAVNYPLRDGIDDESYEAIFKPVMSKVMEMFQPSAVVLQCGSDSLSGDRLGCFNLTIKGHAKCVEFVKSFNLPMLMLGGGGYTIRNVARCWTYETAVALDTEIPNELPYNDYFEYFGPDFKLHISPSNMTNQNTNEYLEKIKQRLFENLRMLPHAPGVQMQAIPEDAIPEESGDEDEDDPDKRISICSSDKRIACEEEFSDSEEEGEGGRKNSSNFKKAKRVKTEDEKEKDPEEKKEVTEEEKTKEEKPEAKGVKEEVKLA
Experiment: Inhibition of human recombinant HDAC1 after 30 mins by fluorescence assay
Conditions: not given

SMILES | IC50
C[C@]12CC[C@@H]3c4ccc(O)cc4CC[C@H]3[C@@H]1CC[C@@]2(O)c1cn(CCCCC(=O)NO)nn1 | 400 nM
C[C@]12CC[C@@H]3c4ccc(O)cc4CC[C@H]3[C@@H]1CC[C@@]2(O)c1cn(CCCC(=O)NO)nn1 | 15 nM

System: not listed separately
Experiment: Therapeutic index, ratio of IC50 for african green monkey Vero cells to IC50 for human MCF7 cells expressing ERalpha and ERbeta
Conditions: Vero cells versus MCF7 cells expressing ERalpha and ERbeta

SMILES | selectivity ratio
C[C@]12CC[C@@H]3c4ccc(O)cc4CC[C@H]3[C@@H]1CC[C@@]2(O)c1cn(CCCC(=O)NO)nn1 | > 1.82

System: Vero
Experiment: Cytotoxicity against african green monkey Vero cells assessed as growth inhibition after 72 hrs by MTT assay
Type: ADME, cell-based
Conditions: Chlorocebus sabaeus

SMILES | IC50
CC/C(=C(\c1ccccc1)c1ccc(OCCN(C)C)cc1)c1ccccc1 [TAMOXIFEN] | 15.9 µM

System: DU-145
Experiment: Cytotoxicity against ERalpha-deficient human DU145 cells expressing ERbeta assessed as growth inhibition after 72 hrs by MTT assay
Type: functional, cell-based
Conditions: DU-145, 72 h

SMILES | IC50
CC(O)(CS(=O)(=O)c1ccc(F)cc1)C(=O)Nc1ccc(C#N)c(C(F)(F)F)c1 (stereo unspecified) [BICALUTAMIDE] | 18 µM
